{"source": "patent US20100136022A1", "about": "“METHOD FOR MODULATING THE IMMUNE RESPONSE BY ACTIVATING OR INACTIVATING THE NOTCH AND/OR STAT4 SIGNAL PATH” (DEUTSCHES RHEUMA-FORSCHUNGSZENTRUM BERLIN, priority 2007, published 2010)", "molecules": {"B1": {"name": "IL-27: STAT4-activating cytokine of the IL-12 family (protein, UniProt Q8NEV9 29-243; Q14213 21-229, looked up)", "Interleukin-27 subunit alpha": "FPRPPGRPQLSLQELRREFTVSLHLARKLLSEVRGQAHRFAESHLPGVNLYLLPLGEQLPDVSLTFQAWRRLSDPERLCFISTTLQPFHALLGGLGTQGRWTNMERMQLWAMRLDLRDLQRHLRFQVLAAGFNLPEEEEEEEEEEEEERKGLLPGALGSALQGPAQVSWPQLLSTYRLLHSLELVLSRAVRELLLLSKAGHSVWPLGFPTLSPQP", "Interleukin-27 subunit beta": "RKGPPAALTLPRVQCRASRYPIAVDCSWTLPPAPNSTSPVSFIATYRLGMAARGHSWPCLQQTPTSTSCTITDVQLFSMAPYVLNVTAVHPWGSSSSFVPFITEHIIKPDPPEGVRLSPLAERQLQVQWEPPGSWPFPEIFSLKYWIRYKRQGAARFHRVGPIEATSFILRAVRPRARYYVQVAAQDLTDYGELSDWSLPATATMSLGK"}}, "key": {"[1]": {"tested_on": "CD11c-positive dendritic cells", "assay": "Expression of Notch ligands in dendritic cells after TLR stimulation (Example 10)", "type": "cell-based, mice", "settings": "stimulation for 15 h; 50 μg/ml pIC, 1 μg/ml LPS, 1 μg/ml flagellin or 1 μM CpG; FIG. 11", "experimental": "CD11c-positive dendritic cells were isolated from spleen and lymphatic nodes of naive mice using flow cytometry and stimulated with 50 μg/ml pIC (TLR3), 1 μg/ml LPS (TLR4), 1 μg/ml flagellin (TLR5) or 1 μM CpG (TLR9) for 15 h."}, "Notch": {"tested_on": "Notch", "assay": "IL-10 expression in lymphatic node cells after transfer of OVA-specific Th cells and OVA/CpG immunization (Example 12)", "type": "in vivo", "settings": "mice received 10 μM/kg; lymphatic node cells after 5 days; FIG. 13", "experimental": "1·10^7 antigen specific (OVA-TZR transgenic) naive Th cells were transferred into recipient mice which were subsequently immunized s.c. with 50 μg of OVA/20 μg of CpG. After 5 days the lymphatic node cells were restimulated with PMA/ionomycin and analyzed using intracellular cytokine staining. IFN-γ/IL-10 double-positive cells were induced under these conditions. The expression of IL-10 was blocked in mice which had received 10 μM/kg of a Notch inhibitor (γ-secretase inhibitor, DBZ, Syncom) (FIG. 13)."}, "Notch signaling pathway [2]": {"tested_on": "Notch signaling pathway", "assay": "IL-10 induction in T helper cells cocultured with A20-B cells expressing Notch ligands DII-1 or DII-4 (Example 9)", "type": "cell-based, mouse", "settings": "125 nM inhibitor; IL-12 10 ng/ml, OVA peptide, 5 days, intracellular staining; FIG. 10A", "experimental": "Antigen-specific (OVA-TZR transgenic) naive CD4+CD25-CD62L+T helper cells were isolated using flow cytometry, cultured with A20-B cells (at a ratio of 2:1) in the presence of IL-12 (10 ng/ml), which cells express the Notch ligands DII-1 or DII-4, and stimulated with OVA peptide (0.2 μg/ml). After 5 days the cells were restimulated with PMA/ionomycin, and their cytokine expression was analyzed using intracellular staining.\nThis induction can be blocked in a specific manner by an inhibitor of the Notch signaling pathway (γ-secretase inhibitor, 125 nM Insolution γ-secretase inhibitor X, Calbiochem) (FIG. 10A). Further coculturing in the presence of the DII-1 and DII-4 ligands dramatically increases the IL-10 production (FIG. 10B)."}, "Notch signaling pathway [3]": {"tested_on": "Notch signaling pathway", "assay": "IL-10 induction in T helper cells cultured with CD11c+ dendritic cells, IL-12 and/or CpG (Example 11)", "type": "cell-based, mouse", "settings": "125 nM inhibitor, OVA peptide, 5 days, FIG. 12", "experimental": "Antigen-specific (OVA-TZR transgenic) naive CD4+CD25-CD62L+T helper cells were isolated using flow cytometry, cultured with CD11c+ dendritic cells from spleen and lymphatic nodes (at a ratio of 20:1) in the presence of IL-12 (10 ng/ml) and/or 1 μM CpG and stimulated with OVA peptide (0.2 μg/ml). After 5 days the cells were restimulated with PMA/ionomycin, and their cytokine expression was analyzed using intracellular staining.\nThe expression of IL-10 can be blocked by a specific inhibitor of the Notch signaling pathway (γ-secretase inhibitor, Calbiochem, 125 nM)."}, "Notch signaling pathway [4]": {"tested_on": "Notch signaling pathway", "assay": "IL-10 expression of human T cells cocultured with plasmacytoid or myeloid dendritic cells (Example 15)", "type": "cell-based", "settings": "85 nM inhibitor, SEB 1 μg/ml, 6 days"}, "STAT4": {"tested_on": "STAT4", "assay": "IL-10 production (ELISA) of Notch3IC-transduced Th cells cultured with interleukin 27 (Example 5)", "type": "cell-based, mice", "settings": "10 ng/ml interleukin 27, wild-type vs STAT4-deficient, FIG. 6", "experimental": "Naive CD4+-CD25-CD62L+T helper cells from wild-type (C57BU6) or STAT4-deficient mice were isolated using flow cytometry. The cells were subsequently cultured with irradiated (30 Gy) MHCII+ antigen-presenting cells at a ratio of 1:4 in the presence of interleukin 27 (10 ng/ml). Stimulation was effected polyclonally using 0.5 μg/ml anti-CD3 and 1 μg/ml anti-CD28. After 24 h the cells were retro-virally transduced with active Notch3 (Notch3IC). To this end, the cells were centrifuged with virus supernatant for 75 min at 750×g and 32° C. After 5 days the cells were restimulated with PMA/ionomycin, and their cytokine production was analyzed using ELISA.\nNo IL-10 production is observed in the event of STAT4-deficient cells."}}, "data": [{"molecule": "flagellin", "values": [{"measurement": "Expression of Delta-like 1", "setting": "[1]", "result": "largely unchanged"}, {"measurement": "Expression of Jagged 1", "setting": "[1]", "result": "largely unchanged"}, {"measurement": "expression of the Delta-like 4 Notch ligand", "setting": "[1]", "result": "enhanced"}]}, {"molecule": "C[C@H](NC(=O)Cc1cc(F)cc(F)c1)C(=O)N[C@@H]1C(=O)N(C)c2ccccc2-c2ccccc21", "note": "[DBZ]", "values": [{"measurement": "expression of IL-10 (IFN-γ/IL-10 double-positive cells)", "setting": "Notch", "result": "blocked"}]}, {"molecule": "CC(C)C[C@H](NC(=O)[C@H](Cc1ccccc1)C[C@@H](O)[C@H](Cc1ccccc1)NC(=O)OC(C)(C)C)C(=O)N[C@@H](Cc1ccccc1)C(N)=O", "note": "[Insolution γ-secretase inhibitor X]", "values": [{"measurement": "IL-10 production induced by coculturing with Delta-like ligands", "setting": "Notch signaling pathway [2]", "result": "blocked"}, {"measurement": "expression of IL-10 in the T cells", "setting": "Notch signaling pathway [3]", "result": "blocked"}, {"measurement": "IL-10 expression, naive T cells cocultured with plasmacytoid dendritic cells", "setting": "Notch signaling pathway [4]; FIG. 16A", "result": "blocked"}, {"measurement": "IL-10 production, memory T cells cocultured with plasmacytoid or myeloid dendritic cells", "setting": "Notch signaling pathway [4]; FIG. 16B", "result": "blocked in either case"}]}, {"molecule": "B1", "values": [{"measurement": "IL-10 production together with Notch, STAT4-dependent", "setting": "STAT4", "result": "induction of IL-10"}]}]}
